Data reported in the supplement of paper PMC11208160.

Assay: recombinant UMI read abundance after kanamycin selection (control-corrected) (log10(CPM+1)); higher = more efficient recombination; extreme values may be limits of the assay; sequences stand for … in AGTGCAGAGAAAATCGGCCAGTTTTCTCTGCCTGCAGTCCGCATGCCGTGGGACCCCTTGGGTTCTAACCTGTTGCCTAGATTTATGCAGCGGACTGCCTTTCTCCCAAAGTGATAAACCGG…AGGTTGGTTTCACT; site = the 11-nt donor
Description: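 Pooled E. coli donor-specificity screen for the IS621 bridge recombinase. Each library member carries a reprogrammed 11-nt donor and a full-length LE bridge RNA expressed in cis from the natural promoter, with a paired donor-binding loop (8-nt LDG + 4-nt RDG) and a target-binding loop fixed to T5. It is co-electroporated with a T5 target plasmid; recombinase is induced with 0.07 mM IPTG and recombinants are selected on kanamycin. UMIs are counted as CPM, averaged over two biological replicates and corrected by the unselected control. Molecule = full bridge RNA written as DNA, built from the T5 scaffold: LDG = donor specificity nt 1-8, RDG = reverse complement of nt 8-11.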
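Note: IS621 bridge recombinase in Escherichia coli cells against a fixed T5 target plasmid.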

Sequence | recombinant UMI read abundance (log10)
AAGTGCACATGGACCGGTTTTCCCGGTAATCCGTATTTGGT (site AAGTGCACTAC) | 0.762
AAGTGTACATGGACCGGTTTTCCCGGTAATCCGTATTTGTG (site AAGTGTACTCA) | 0.962
AATAAACCATGGACCGGTTTTCCCGGTAATCCGTATTTGCC (site AATAAACCTGG) | 0
AATAAACCATGGACCGGTTTTCCCGGTAATCCGTATTTGTG (site AATAAACCTCA) | 0.00291
AATAATTCATGGACCGGTTTTCCCGGTAATCCGTATTTGAT (site AATAATTCTAT) | 0.955
AATAGCACATGGACCGGTTTTCCCGGTAATCCGTATTTGGC (site AATAGCACTGC) | 2.04
AATATGTCATGGACCGGTTTTCCCGGTAATCCGTATTTGAC (site AATATGTCTGT) | 0.953
AATATGTCATGGACCGGTTTTCCCGGTAATCCGTATTTGAC (site AATCTGTCTGT) | 0
AATATGTCATGGACCGGTTTTCCCGGTAATCCGTATTTGAC (site AATGTGTCTGT) | 0
AATATGTCATGGACCGGTTTTCCCGGTAATCCGTATTTGAC (site AATTTGTCTGT) | 0
AATCCCACATGGACCGGTTTTCCCGGTAATCCGTATTTGCT (site AATCCCACTAG) | 1.77
AATCCTCCATGGACCGGTTTTCCCGGTAATCCGTATTTGAT (site AATCCTCCTAT) | 0.344
AATCGAGCATGGACCGGTTTTCCCGGTAATCCGTATTTGGA (site AATCGAGCTTC) | 0.474
AATCTAACATGGACCGGTTTTCCCGGTAATCCGTATTTGCT (site AATATAACTAG) | 0
AATCTAACATGGACCGGTTTTCCCGGTAATCCGTATTTGCT (site AATCTAACTAG) | 0
AATCTAACATGGACCGGTTTTCCCGGTAATCCGTATTTGCT (site AATGTAACTAG) | 0.245
AATCTAACATGGACCGGTTTTCCCGGTAATCCGTATTTGCT (site AATTTAACTAG) | 0
AATCTGTCATGGACCGGTTTTCCCGGTAATCCGTATTTGAC (site AATATGTCTGT) | 0
AATCTGTCATGGACCGGTTTTCCCGGTAATCCGTATTTGAC (site AATCTGTCTGT) | 0
AATCTGTCATGGACCGGTTTTCCCGGTAATCCGTATTTGAC (site AATGTGTCTGT) | 0.00511
AATCTGTCATGGACCGGTTTTCCCGGTAATCCGTATTTGAC (site AATTTGTCTGT) | 0
AATGAAACATGGACCGGTTTTCCCGGTAATCCGTATTTGCT (site AATGAAACTAG) | 1.94
AATGAAACATGGACCGGTTTTCCCGGTAATCCGTATTTGCT (site AATGCAACTAG) | 0.479
AATGAAACATGGACCGGTTTTCCCGGTAATCCGTATTTGCT (site AATGGAACTAG) | 0

Sequence | recombinant UMI read abundance (log10)
AATGAAACATGGACCGGTTTTCCCGGTAATCCGTATTTGCT (site AATGTAACTAG) | 1.65
AATGAAGCATGGACCGGTTTTCCCGGTAATCCGTATTTGTC (site AATGAAGCTGA) | 2.09
AATGGATCATGGACCGGTTTTCCCGGTAATCCGTATTTGAC (site AATGGATCTGT) | 2.04
AATGTAACATGGACCGGTTTTCCCGGTAATCCGTATTTGCT (site AAAGTAACTAG) | 1.76
AATGTAACATGGACCGGTTTTCCCGGTAATCCGTATTTGCT (site AACGTAACTAG) | 2.22
AATGTAACATGGACCGGTTTTCCCGGTAATCCGTATTTGCT (site AAGGTAACTAG) | 1.84
AATGTAACATGGACCGGTTTTCCCGGTAATCCGTATTTGCT (site AATATAACTAG) | 2.07
AATGTAACATGGACCGGTTTTCCCGGTAATCCGTATTTGCT (site AATCTAACTAG) | 0.276
AATGTAACATGGACCGGTTTTCCCGGTAATCCGTATTTGCT (site AATGAAACTAG) | 0.0158
AATGTAACATGGACCGGTTTTCCCGGTAATCCGTATTTGCT (site AATGCAACTAG) | 0.239
AATGTAACATGGACCGGTTTTCCCGGTAATCCGTATTTGCT (site AATGGAACTAG) | 0
AATGTAACATGGACCGGTTTTCCCGGTAATCCGTATTTGCT (site AATGTAACTAA) | 0.0161
AATGTAACATGGACCGGTTTTCCCGGTAATCCGTATTTGCT (site AATGTAACTAC) | 0.00758
AATGTAACATGGACCGGTTTTCCCGGTAATCCGTATTTGCT (site AATGTAACTAG) | 2.26
AATGTAACATGGACCGGTTTTCCCGGTAATCCGTATTTGCT (site AATGTAACTAT) | 0.0618
AATGTAACATGGACCGGTTTTCCCGGTAATCCGTATTTGCT (site AATGTAACTCG) | 0.0789
AATGTAACATGGACCGGTTTTCCCGGTAATCCGTATTTGCT (site AATGTAACTGG) | 1.14
AATGTAACATGGACCGGTTTTCCCGGTAATCCGTATTTGCT (site AATGTAACTTG) | 0.00409
AATGTAACATGGACCGGTTTTCCCGGTAATCCGTATTTGCT (site AATGTACCTAG) | 0
AATGTAACATGGACCGGTTTTCCCGGTAATCCGTATTTGCT (site AATGTAGCTAG) | 0.332
AATGTAACATGGACCGGTTTTCCCGGTAATCCGTATTTGCT (site AATGTATCTAG) | 1.67
AATGTAACATGGACCGGTTTTCCCGGTAATCCGTATTTGCT (site AATGTCACTAG) | 0.198
AATGTAACATGGACCGGTTTTCCCGGTAATCCGTATTTGCT (site AATGTGACTAG) | 0.422
AATGTAACATGGACCGGTTTTCCCGGTAATCCGTATTTGCT (site AATGTTACTAG) | 1.14

Sequence | recombinant UMI read abundance (log10)
AATGTAACATGGACCGGTTTTCCCGGTAATCCGTATTTGCT (site AATTTAACTAG) | 0.682
AATGTAACATGGACCGGTTTTCCCGGTAATCCGTATTTGCT (site ACTGTAACTAG) | 1.84
AATGTAACATGGACCGGTTTTCCCGGTAATCCGTATTTGCT (site AGTGTAACTAG) | 1.51
AATGTAACATGGACCGGTTTTCCCGGTAATCCGTATTTGCT (site ATTGTAACTAG) | 2.07
AATGTAACATGGACCGGTTTTCCCGGTAATCCGTATTTGCT (site CATGTAACTAG) | 2.37
AATGTAACATGGACCGGTTTTCCCGGTAATCCGTATTTGCT (site GATGTAACTAG) | 1.57
AATGTAACATGGACCGGTTTTCCCGGTAATCCGTATTTGCT (site TATGTAACTAG) | 2.39
AATGTGACATGGACCGGTTTTCCCGGTAATCCGTATTTGCT (site AATGTAACTAG) | 2.04
AATGTGACATGGACCGGTTTTCCCGGTAATCCGTATTTGCT (site AATGTCACTAG) | 0.731
AATGTGACATGGACCGGTTTTCCCGGTAATCCGTATTTGCT (site AATGTGACTAG) | 2.65
AATGTGACATGGACCGGTTTTCCCGGTAATCCGTATTTGCT (site AATGTTACTAG) | 0.751
AATGTGTCATGGACCGGTTTTCCCGGTAATCCGTATTTGAA (site AATGTGTCTAT) | 0.324
AATGTGTCATGGACCGGTTTTCCCGGTAATCCGTATTTGAA (site AATGTGTCTCT) | 0.204
AATGTGTCATGGACCGGTTTTCCCGGTAATCCGTATTTGAA (site AATGTGTCTGT) | 0
AATGTGTCATGGACCGGTTTTCCCGGTAATCCGTATTTGAA (site AATGTGTCTTT) | 2.11
AATGTGTCATGGACCGGTTTTCCCGGTAATCCGTATTTGAC (site AAAGTGTCTGT) | 0
AATGTGTCATGGACCGGTTTTCCCGGTAATCCGTATTTGAC (site AACGTGTCTGT) | 0
AATGTGTCATGGACCGGTTTTCCCGGTAATCCGTATTTGAC (site AAGGTGTCTGT) | 1.02
AATGTGTCATGGACCGGTTTTCCCGGTAATCCGTATTTGAC (site AATATGTCTGT) | 0.433
AATGTGTCATGGACCGGTTTTCCCGGTAATCCGTATTTGAC (site AATCTGTCTGT) | 0
AATGTGTCATGGACCGGTTTTCCCGGTAATCCGTATTTGAC (site AATGAGTCTGT) | 0
AATGTGTCATGGACCGGTTTTCCCGGTAATCCGTATTTGAC (site AATGCGTCTGT) | 0
AATGTGTCATGGACCGGTTTTCCCGGTAATCCGTATTTGAC (site AATGGGTCTGT) | 0
AATGTGTCATGGACCGGTTTTCCCGGTAATCCGTATTTGAC (site AATGTATCTGT) | 1.2
